Reference: patent US10100331B2, “Reagent for gene-drug therapeutics” (Agency for Science, Technology and Research, priority 2012, dated 2018)

What was measured:
Neuro2A cells = experiment: Transfection of Neuro2A cells with PKC inhibitor; type: cell-based; settings: 2 μM, 45 min prior and after transfection; LPEI/pDNA N/P=20; 24 h
Protocol: Neuro2A cells were treated with GÖ6983 (2 μM) for 45 min prior transfection. Transfection mixture (LPEI/pDNA at N/P=20) was replaced with DMEM containing 0.5% FBS and GÖ6983 (2 μM). Representative images (acquired 24 h post transfection) were shown.

HDAC3 = HDAC3 (Homo sapiens, UniProt O15379); settings: Targeted HDAC/Sirtuin: 3; cited from earlier work
Sequence of HDAC3 (O15379 whole entry): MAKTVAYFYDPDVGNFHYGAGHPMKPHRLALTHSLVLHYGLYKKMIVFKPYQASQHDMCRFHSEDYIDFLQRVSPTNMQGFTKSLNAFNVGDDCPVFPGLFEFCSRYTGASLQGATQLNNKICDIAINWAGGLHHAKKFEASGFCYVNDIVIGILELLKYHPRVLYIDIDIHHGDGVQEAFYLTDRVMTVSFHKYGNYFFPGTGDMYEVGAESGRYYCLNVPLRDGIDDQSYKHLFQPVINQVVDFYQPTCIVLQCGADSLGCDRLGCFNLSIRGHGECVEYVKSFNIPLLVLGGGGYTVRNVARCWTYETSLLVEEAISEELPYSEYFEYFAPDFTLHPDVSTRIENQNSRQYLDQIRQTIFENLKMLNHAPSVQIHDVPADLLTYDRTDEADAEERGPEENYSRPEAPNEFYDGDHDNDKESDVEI
Sequence of HDAC3 (Q9Y618 395-489 partner limits assumed): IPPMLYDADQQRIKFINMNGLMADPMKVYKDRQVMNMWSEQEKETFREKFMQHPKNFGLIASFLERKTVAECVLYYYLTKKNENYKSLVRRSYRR

HDAC8 = biological target: T1, HDAC8 (Homo sapiens, UniProt Q9BY41); settings: Targeted HDAC/Sirtuin: 8; cited from earlier work
T1 sequence (Q9BY41 1-377): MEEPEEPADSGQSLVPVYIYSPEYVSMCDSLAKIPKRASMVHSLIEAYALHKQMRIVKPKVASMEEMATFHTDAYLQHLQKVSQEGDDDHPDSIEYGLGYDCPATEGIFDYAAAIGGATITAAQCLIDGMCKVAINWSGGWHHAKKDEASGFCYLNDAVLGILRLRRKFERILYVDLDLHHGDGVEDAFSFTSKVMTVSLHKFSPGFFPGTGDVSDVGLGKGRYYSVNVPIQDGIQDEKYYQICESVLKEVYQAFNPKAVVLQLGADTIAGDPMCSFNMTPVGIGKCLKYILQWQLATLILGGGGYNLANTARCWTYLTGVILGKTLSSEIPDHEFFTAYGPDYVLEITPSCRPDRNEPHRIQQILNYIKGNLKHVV

HDAC6 = biological target: T2, HDAC6 (Homo sapiens, UniProt Q9UBN7); settings: Targeted HDAC/Sirtuin: 6; cited from earlier work
T2 sequence (Q9UBN7 1-1215): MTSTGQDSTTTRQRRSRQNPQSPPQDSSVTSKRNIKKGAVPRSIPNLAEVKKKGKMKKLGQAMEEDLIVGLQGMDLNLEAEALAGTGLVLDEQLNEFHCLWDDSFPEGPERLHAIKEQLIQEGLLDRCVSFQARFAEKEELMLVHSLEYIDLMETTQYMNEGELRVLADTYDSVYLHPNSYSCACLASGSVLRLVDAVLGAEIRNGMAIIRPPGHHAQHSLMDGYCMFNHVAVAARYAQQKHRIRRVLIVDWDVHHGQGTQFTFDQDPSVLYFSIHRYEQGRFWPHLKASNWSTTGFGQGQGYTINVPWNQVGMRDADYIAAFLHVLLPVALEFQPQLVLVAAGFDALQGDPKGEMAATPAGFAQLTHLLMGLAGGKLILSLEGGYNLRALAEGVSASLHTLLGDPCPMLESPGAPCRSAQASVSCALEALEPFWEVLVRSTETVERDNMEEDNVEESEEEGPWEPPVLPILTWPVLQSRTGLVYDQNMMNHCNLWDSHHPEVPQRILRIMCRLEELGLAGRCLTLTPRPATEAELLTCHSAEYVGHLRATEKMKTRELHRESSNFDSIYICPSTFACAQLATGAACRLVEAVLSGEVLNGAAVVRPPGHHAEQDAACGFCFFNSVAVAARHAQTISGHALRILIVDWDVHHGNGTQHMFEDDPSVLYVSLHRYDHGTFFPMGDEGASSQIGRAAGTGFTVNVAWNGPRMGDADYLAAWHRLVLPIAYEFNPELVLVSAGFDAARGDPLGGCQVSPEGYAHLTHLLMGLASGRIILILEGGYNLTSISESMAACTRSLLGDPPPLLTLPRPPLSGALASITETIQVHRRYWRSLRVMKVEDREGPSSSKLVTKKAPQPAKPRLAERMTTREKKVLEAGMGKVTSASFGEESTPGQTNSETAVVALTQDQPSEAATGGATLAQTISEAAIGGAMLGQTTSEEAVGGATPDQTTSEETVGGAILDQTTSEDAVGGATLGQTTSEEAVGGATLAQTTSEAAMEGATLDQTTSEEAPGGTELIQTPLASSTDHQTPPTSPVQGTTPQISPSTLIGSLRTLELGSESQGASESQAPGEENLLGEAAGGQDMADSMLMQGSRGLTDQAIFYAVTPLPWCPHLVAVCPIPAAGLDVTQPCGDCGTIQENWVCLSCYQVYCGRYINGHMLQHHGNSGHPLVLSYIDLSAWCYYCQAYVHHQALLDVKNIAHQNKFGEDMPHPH

HDAC2 = HDAC2 (Homo sapiens, UniProt Q92769); settings: Targeted HDAC/Sirtuin: 2; cited from earlier work
Sequence of HDAC2 (Q92769 whole entry): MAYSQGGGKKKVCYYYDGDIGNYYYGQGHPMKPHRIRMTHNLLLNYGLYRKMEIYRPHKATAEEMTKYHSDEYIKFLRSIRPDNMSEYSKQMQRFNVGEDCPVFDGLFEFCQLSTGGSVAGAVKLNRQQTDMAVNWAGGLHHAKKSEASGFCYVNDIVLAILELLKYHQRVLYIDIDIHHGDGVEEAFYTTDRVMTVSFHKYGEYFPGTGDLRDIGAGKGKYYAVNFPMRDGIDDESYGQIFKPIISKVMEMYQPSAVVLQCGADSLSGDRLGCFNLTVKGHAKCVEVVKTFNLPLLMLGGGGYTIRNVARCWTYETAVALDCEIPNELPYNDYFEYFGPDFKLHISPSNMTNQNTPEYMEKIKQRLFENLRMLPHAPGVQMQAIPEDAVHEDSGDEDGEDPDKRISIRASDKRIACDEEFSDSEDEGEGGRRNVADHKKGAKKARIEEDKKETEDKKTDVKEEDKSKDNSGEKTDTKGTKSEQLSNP

HDAC1 = HDAC1 (Homo sapiens, UniProt Q13547); settings: Targeted HDAC/Sirtuin: 1; cited from earlier work
Sequence of HDAC1 (Q13547 whole entry, species assumed): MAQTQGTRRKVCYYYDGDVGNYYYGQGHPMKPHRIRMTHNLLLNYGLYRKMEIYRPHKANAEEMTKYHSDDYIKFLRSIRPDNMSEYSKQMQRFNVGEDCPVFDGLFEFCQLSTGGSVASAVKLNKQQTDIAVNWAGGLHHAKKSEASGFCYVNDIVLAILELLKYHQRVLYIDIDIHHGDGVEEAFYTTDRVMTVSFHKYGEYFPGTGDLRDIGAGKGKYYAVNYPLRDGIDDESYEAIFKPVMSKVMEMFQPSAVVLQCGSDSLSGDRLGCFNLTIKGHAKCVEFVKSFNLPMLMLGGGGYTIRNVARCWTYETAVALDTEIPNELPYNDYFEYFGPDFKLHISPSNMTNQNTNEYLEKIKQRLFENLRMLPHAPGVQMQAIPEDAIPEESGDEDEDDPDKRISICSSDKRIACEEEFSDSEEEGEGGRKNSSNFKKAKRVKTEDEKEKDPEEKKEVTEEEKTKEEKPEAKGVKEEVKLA

SMILES | transfection (Neuro2A cells) | IC50 (HDAC3) [µM] | IC50 (HDAC8) [µM] | IC50 (HDAC6) [µM] | IC50 (HDAC2) [µM] | IC50 (HDAC1) [µM]
COc1ccc2c(c1)c(C1=C(c3c[nH]c4ccccc34)C(=O)NC1=O)cn2CCCN(C)C [GÖ6983] | substantially reduced transfection |  |  |  |  | 
CCCCOc1ccc(CC(=O)NO)cc1 [Bufexamac] |  | 341 | 235 | 10.7 |  | 
Nc1ccccc1NC(=O)CCCCCCC(=O)Nc1ccccc1 [BML-210] |  | 2.62 |  |  | 10.9 | 15
